Laboratory results taken from PubChem BioAssay AID1259407 (Chemical Carcinogenesis Research Information System (CCRIS), 2018).
Calls of active or inactive are those of the source. The rule behind the calls is not given here.

Test system: CCRIS mutagenicity, Ames/micronucleus/aberration tests
Assay: CCRIS mutagenicity studies
[1] = Test System: AMES SALMONELLA TYPHIMURIUM, Strain/Indicator: TA98, Metabolic Activation: S-9, Method: STANDARD PLATE
[2] = Test System: AMES SALMONELLA TYPHIMURIUM, Strain/Indicator: TA100, Metabolic Activation: S-9, Method: STANDARD PLATE
[3] = Test System: AMES SALMONELLA TYPHIMURIUM, Strain/Indicator: TA98, Metabolic Activation: NONE, Method: PREINCUBATION
[4] = Test System: AMES SALMONELLA TYPHIMURIUM, Strain/Indicator: TA100, Metabolic Activation: NONE, Method: PREINCUBATION
[5] = Test System: AMES SALMONELLA TYPHIMURIUM, Strain/Indicator: TA98, Metabolic Activation: RAT, LIVER, S-9, AROCLOR 1254, Method: STANDARD PLATE
[6] = Test System: AMES SALMONELLA TYPHIMURIUM, Strain/Indicator: TA100, Metabolic Activation: RAT, LIVER, S-9, AROCLOR 1254, Method: STANDARD PLATE
[7] = Test System: AMES SALMONELLA TYPHIMURIUM, Strain/Indicator: TA98, Metabolic Activation: NONE, Method: STANDARD PLATE
[8] = Test System: AMES SALMONELLA TYPHIMURIUM, Strain/Indicator: TA100, Metabolic Activation: NONE, Method: STANDARD PLATE
[9] = Test System: AMES SALMONELLA TYPHIMURIUM, Strain/Indicator: TA1535, Metabolic Activation: NONE, Method: STANDARD PLATE

Measured: mutagenic call

Oc1ccc(Oc2c(Cl)cc(Cl)cc2Cl)cc1
inactive: [1] inactive; negative | [2] inactive; negative | Test System: AMES SALMONELLA TYPHIMURIUM, Strain/Indicator: YG1021, Metabolic Activation: S-9, Method: STANDARD PLATE inactive; negative | Test System: AMES SALMONELLA TYPHIMURIUM, Strain/Indicator: YG1024, Metabolic Activation: S-9, Method: STANDARD PLATE inactive; negative | Test System: AMES SALMONELLA TYPHIMURIUM, Strain/Indicator: YG1026, Metabolic Activation: S-9, Method: STANDARD PLATE inactive; negative | Test System: AMES SALMONELLA TYPHIMURIUM, Strain/Indicator: YG1029, Metabolic Activation: S-9, Method: STANDARD PLATE inactive; negative

C1CC2OC2CC1C1CO1 (stereo unspecified)
active: Test System: AMES SALMONELLA TYPHIMURIUM, Strain/Indicator: TA98, Metabolic Activation: HAMSTER, LIVER, S-9, AROCLOR 1254, Method: PREINCUBATION active; positive | [3] active; positive | Test System: AMES SALMONELLA TYPHIMURIUM, Strain/Indicator: TA98, Metabolic Activation: RAT, LIVER, S-9, AROCLOR 1254, Method: PREINCUBATION active; positive | Test System: AMES SALMONELLA TYPHIMURIUM, Strain/Indicator: TA100, Metabolic Activation: HAMSTER, LIVER, S-9, AROCLOR 1254, Method: PREINCUBATION active; positive | [4] active; positive | Test System: AMES SALMONELLA TYPHIMURIUM, Strain/Indicator: TA100, Metabolic Activation: RAT, LIVER, S-9, AROCLOR 1254, Method: PREINCUBATION active; positive | Test System: AMES SALMONELLA TYPHIMURIUM, Strain/Indicator: TA1535, Metabolic Activation: HAMSTER, LIVER, S-9, AROCLOR 1254, Method: PREINCUBATION active; positive | Test System: AMES SALMONELLA TYPHIMURIUM, Strain/Indicator: TA1535, Metabolic Activation: NONE, Method: PREINCUBATION active; positive | Test System: AMES SALMONELLA TYPHIMURIUM, Strain/Indicator: TA1535, Metabolic Activation: RAT, LIVER, S-9, AROCLOR 1254, Method: PREINCUBATION active; positive | Test System: AMES SALMONELLA TYPHIMURIUM, Strain/Indicator: TA1537, Metabolic Activation: HAMSTER, LIVER, S-9, AROCLOR 1254, Method: PREINCUBATION active; positive | Test System: AMES SALMONELLA TYPHIMURIUM, Strain/Indicator: TA1537, Metabolic Activation: RAT, LIVER, S-9, AROCLOR 1254, Method: PREINCUBATION active; positive | Test System: MOUSE LYMPHOMA, Strain/Indicator: L5178Y (TK+/TK-), Metabolic Activation: NONE, Method: SUSPENSION/PLATE active; positive

CCc1cc(Cc2cc(C)c(N)c(CC)c2)cc(C)c1N
inactive: [5] inactive; negative | [6] inactive; negative

CC1(C)C(C(=O)OC(C#N)c2cccc(Oc3ccccc3)c2)C1(C)C (stereo unspecified)
inactive: End Point: In vitro chromasomal aberrations, Test System: Chinese hamster ovary (CHO-K1) cells, Metabolic Activation: None inactive; negative | End Point: In vitro chromasomal aberrations, Test System: Chinese hamster ovary (CHO-K1) cells, Metabolic Activation: Rat, liver, S-9, PCB inactive; negative | [7] inactive; negative | [1] inactive; negative | [8] inactive; negative | [2] inactive; negative | [9] inactive; negative | Test System: AMES SALMONELLA TYPHIMURIUM, Strain/Indicator: TA1535, Metabolic Activation: S-9, Method: STANDARD PLATE inactive; negative | Test System: AMES SALMONELLA TYPHIMURIUM, Strain/Indicator: TA1537, Metabolic Activation: NONE, Method: STANDARD PLATE inactive; negative | Test System: AMES SALMONELLA TYPHIMURIUM, Strain/Indicator: TA1537, Metabolic Activation: S-9, Method: STANDARD PLATE inactive; negative | Test System: Ames Salmonella typhimurium, Strain/Indicator: TA98, Metabolic Activation: Rat, Liver, S-9, Kanechlor-400, Method: Preincubation inactive; negative | Test System: Ames Salmonella typhimurium, Strain/Indicator: TA100, Metabolic Activation: Rat, Liver, S-9, Kanechlor-400, Method: Preincubation inactive; negative | Test System: Ames Salmonella typhimurium, Strain/Indicator: TA1535, Metabolic Activation: Rat, Liver, S-9, Kanechlor-400, Method: Preincubation inactive; negative | Test System: Ames Salmonella typhimurium, Strain/Indicator: TA1537, Metabolic Activation: Rat, Liver, S-9, Kanechlor-400, Method: Preincubation inactive; negative | Test System: Ames Salmonella typhimurium, Strain/Indicator: TA1538, Metabolic Activation: Rat, Liver, S-9, Kanechlor-400, Method: Preincubation inactive; negative | Test System: E. coli, Strain/Indicator: WP2uvrA, Metabolic Activation: Rat, Liver, S-9, Kanechlor-400, Method: Preincubation inactive; negative

Cc1ccc2c(c1O)C(=O)c1ccccc1C2=O
inactive: [3] inactive; negative | [4] inactive; negative
active: Test System: AMES SALMONELLA TYPHIMURIUM, Strain/Indicator: TA98, Metabolic Activation: RAT, LIVER, S-9, PCB, Method: PREINCUBATION active; positive | Test System: AMES SALMONELLA TYPHIMURIUM, Strain/Indicator: TA100, Metabolic Activation: RAT, LIVER, S-9, PCB, Method: PREINCUBATION active; positive

O=[N+]([O-])c1ccc2c(c1)-c1nc3ccccc3c3c1c-2nc1ccccc13
active: [7] active; positive | Test System: AMES SALMONELLA TYPHIMURIUM, Strain/Indicator: TA98, Metabolic Activation: RAT LIVER S-9, AROCLOR 1254, Method: STANDARD PLATE active; positive
inactive: Test System: ESCHERICHIA COLI, Strain/Indicator: WP2 UVR A, Metabolic Activation: NONE, Method: STANDARD PLATE inactive; negative | Test System: ESCHERICHIA COLI, Strain/Indicator: WP2 UVR A, Metabolic Activation: RAT LIVER S-9, AROCLOR 1254, Method: STANDARD PLATE inactive; negative

CCc1c2ccccc2c(C)c2c1ccc1ccccc12
inactive: Test System: AMES SALMONELLA TYPHIMURIUM, Strain/Indicator: TA98, Method: STANDARD PLATE inactive; negative | Test System: AMES SALMONELLA TYPHIMURIUM, Strain/Indicator: TA100, Metabolic Activation: RAT, LIVER, S-9, PHENOBARBITAL, Method: STANDARD PLATE inactive; negative | Test System: AMES SALMONELLA TYPHIMURIUM, Strain/Indicator: TA100, Method: STANDARD PLATE inactive; negative

CC(C)CCC[C@@H](C)[C@H]1CC[C@H]2[C@@H]3C[C@H]4O[C@]45C[C@@H](O)CC[C@]5(C)[C@H]3CC[C@]12C
active: Test System: CHINESE HAMSTER V-79, Strain/Indicator: V-79/6-THIOGUANINE, Metabolic Activation: NONE active; positive
inactive: Test System: CHINESE HAMSTER V-79, Strain/Indicator: V-79/OUABAIN, Metabolic Activation: NONE inactive; negative

CC1c2cc(F)ccc2-c2ccc(F)cc21
active: [6] active; positive

N#CC(Cl)Cl
active: [7] active; positive | [5] active; positive | Test System: AMES SALMONELLA TYPHIMURIUM, Strain/Indicator: TA100, Metabolic Activation: NONE, Method: FLUCTUATION TEST active; positive | [4] active; positive | [8] active; positive | Test System: AMES SALMONELLA TYPHIMURIUM, Strain/Indicator: TA100, Metabolic Activation: RAT, LIVER, S-9, AROCLOR 1254, Method: FLUCTUATION TEST active; positive | [6] active; positive | Test System: AMES SALMONELLA TYPHIMURIUM, Strain/Indicator: TA100, Metabolic Activation: RAT, LIVER, S-9, PHENOBARBITAL AND 5,6-BENZOFLAVONE, Method: PREINCUBATION active; positive | [9] active; positive | Test System: AMES SALMONELLA TYPHIMURIUM, Strain/Indicator: TA1535, Metabolic Activation: RAT, LIVER, S-9, AROCLOR 1254, Method: STANDARD PLATE active; positive
inactive: Test System: AMES SALMONELLA TYPHIMURIUM, Strain/Indicator: TA98, Metabolic Activation: RAT, LIVER, S-9, PHENOBARBITAL AND 5,6-BENZOFLAVONE, Method: PREINCUBATION inactive; negative
